From patent publication US11319299B2, “Substituted carboxamides as inhibitors of WDR5 protein-protein binding” (PROPELLON THERAPEUTICS INC., priority 2016, dated 2022)

Biological target: WDR5 (Homo sapiens (Human), UniProt P61964)
Experiment: Surface Plasmon Resonance (SPR) assay, KD and residence time
Format: binding
Conditions: surface plasmon resonance (SPR) assay; read-out: WDR5 binding affinity (KD)
Description: (i) Surface Plasmon Resonance (SPR) Assay
The lifetime of a drug on its target is determined by two rate constants: the association rate constant (kon) and the dissociation rate constant (koff). In principle, the lifetime of the binary drug—target complex is thus extended by a rapid rate of drug binding and/or a slow rate of drug—target complex dissociation. The in vivo lifetime of a drug-target complex is most critically dependent on the value of the koff [Nat. Rev. Drug Discov. […] Drug Discov. […] Drug-target residence time is defined as the reciprocal of koff (τ=1/koff), making the residence time a parameter that is easily measured by routine in vitro assay methods.

| Kd | SMILES |
| --- | --- |
| 592 nM | CC1CN(c2cc(F)c(-c3cnc(N4CCOCC4)nc3)cc2NC(=O)c2cc[nH]n2)CCN1C (stereo in doubt) [Example 193, N-[4-fluoro-5-(2-morpholin-4-ylpyrimidin-5-yl)-2-[(3R)-3,4-dimethylpiperazin-1-yl]phenyl]-1H-pyrazole-3-carboxamide] |
| 113 nM | Cc1nc(C(=O)Nc2cc(-c3cnc(N4CCOCC4)nc3)c(F)cc2N2CCN(C)C(C)C2)cs1 (stereo in doubt) [Example 194, N-[4-fluoro-5-(2-morpholin-4-ylpyrimidin-5-yl)-2-[(3R)-3,4-dimethylpiperazin-1-yl]phenyl]-2-methyl-1,3-thiazole-4-carboxamide] |
| 106 nM | Cc1ncc(C(=O)Nc2cc(-c3cnc(N4CCOCC4)nc3)c(F)cc2N2CCN(C)C(C)C2)s1 (stereo in doubt) [Example 195, N-[4-fluoro-5-(2-morpholin-4-ylpyrimidin-5-yl)-2-[(3R)-3,4-dimethylpiperazin-1-yl]phenyl]-2-methyl-1,3-thiazole-5-carboxamide] |
| 0.24 nM | CC(=O)Nc1ccc(-c2cc(NC(=O)c3c[nH]c(=O)cc3C(F)(F)F)c(N3CCN(C)C(C)C3)cc2F)cn1 (stereo in doubt) [Example 196, N-[5-(6-acetamidopyridin-3-yl)-4-fluoro-2-[(3R)-3,4-dimethylpiperazin-1-yl]phenyl]-6-oxo-4-(trifluoromethyl)-1H-pyridine-3-carboxamide] |
| 0.666 nM | CC1CN(c2cc(F)c(-c3ccc(OCC4CC4)nc3)cc2NC(=O)c2c[nH]c(=O)cc2C(F)(F)F)CCN1C (stereo in doubt) [Example 198, N-[5-[6-(cyclopropylmethoxy)pyridin-3-yl]-4-fluoro-2-[(3R)-3,4-dimethylpiperazin-1-yl]phenyl]-6-oxo-4-(trifluoromethyl)-1H-pyridine-3-carboxamide] |
| 23.4 nM | Cc1nc(C(F)(F)F)c(C(=O)Nc2cc(-c3cnc(N4CCOCC4)nc3)c(F)cc2N2CCN(C)C(C)C2)s1 (stereo in doubt) [Example 199, N-[4-fluoro-5-(2-morpholin-4-ylpyrimidin-5-yl)-2-[(3R)-3,4-dimethylpiperazin-1-yl]phenyl]-2-methyl-4-(trifluoromethyl)-1,3-thiazole-5-carboxamide] |
| 9.7 nM | CC1CN(c2cc(F)c(-c3cnc(N4CCOCC4)nc3)cc2NC(=O)c2cc(Cl)cc(Cl)c2)CCN1C (stereo in doubt) [Example 200, 3,5-dichloro-N-[4-fluoro-5-(2-morpholin-4-ylpyrimidin-5-yl)-2-[(3R)-3,4-dimethylpiperazin-1-yl]phenyl]benzamide] |
| 2.15 nM | CC1CN(c2cc(F)c(-c3cccc(CN(C)C4COC4)c3)cc2NC(=O)c2c[nH]c(=O)cc2C(F)(F)F)CCN1C (stereo in doubt) [Example 214, N-[4-fluoro-5-[3-[[methyl(oxetan-3-yl)amino]methyl]phenyl]-2-[(3R)-3,4-dimethylpiperazin-1-yl]phenyl]-6-oxo-4-(trifluoromethyl)-1H-pyridine-3-carboxamide] |
| 4.32 nM | CC(=O)Nc1ccc(-c2cc(NC(=O)c3cn(C)c(=O)cc3C(F)F)c(N3CCN(C)C(C)C3)cc2F)cn1 (stereo in doubt) [Example 217, N-[5-(6-acetamidopyridin-3-yl)-4-fluoro-2-[(3R)-3,4-dimethylpiperazin-1-yl]phenyl]-4-(difluoromethyl)-1-methyl-6-oxopyridine-3-carboxamide] |
| 3.18 nM | CC1CN(c2cc(F)c(-c3cnc(C#N)nc3)cc2NC(=O)c2cn(C)c(=O)cc2C(F)F)CCN1C (stereo in doubt) [Example 218, N-[5-(2-cyanopyrimidin-5-yl)-4-fluoro-2-[(3R)-3,4-dimethylpiperazin-1-yl]phenyl]-4-(difluoromethyl)-1-methyl-6-oxopyridine-3-carboxamide] |
| 1.4 nM | CC1CN(c2cc(F)c(-c3ccc(N(C)C)nc3)cc2NC(=O)c2c[nH]c(=O)cc2C(F)(F)F)CCN1C (stereo in doubt) [Example 219, N-[5-[6-(dimethylamino)pyridin-3-yl]-4-fluoro-2-[(3R)-3,4-dimethylpiperazin-1-yl]phenyl]-6-oxo-4-(trifluoromethyl)-1H-pyridine-3-carboxamide] |
| 8.95 nM | CC1CN(c2cc(F)c(-c3cnc(N4CCOCC4)nc3)cc2NC(=O)c2ccc(F)cc2Cl)CCN1C (stereo in doubt) [Example 230, 2-chloro-4-fluoro-N-[4-fluoro-5-(2-morpholin-4-ylpyrimidin-5-yl)-2-[(3R)-3,4-dimethylpiperazin-1-yl]phenyl]benzamide] |
| 1.07 nM | CC1CN(c2cc(F)c(-c3ccc(N4CCOCC4)nc3)cc2NC(=O)c2c[nH]c(=O)cc2C(F)(F)F)CCN1C (stereo in doubt) [Example 239, N-[4-fluoro-5-(6-morpholin-4-ylpyridin-3-yl)-2-[(3R)-3,4-dimethylpiperazin-1-yl]phenyl]-6-oxo-4-(trifluoromethyl)-1H-pyridine-3-carboxamide] |
| 2.23 nM | CC(C)Oc1ncc(-c2cc(NC(=O)c3c[nH]c(=O)cc3C(F)(F)F)c(N3CCN(C)C(C)C3)cc2F)cn1 (stereo in doubt) [Example 240, N-[4-fluoro-5-(2-propan-2-yloxypyrimidin-5-yl)-2-[(3R)-3,4-dimethylpiperazin-1-yl]phenyl]-6-oxo-4-(trifluoromethyl)-1H-pyridine-3-carboxamide] |
| 2.82 nM | CC1CN(c2cc(F)c(-c3cnc4c(c3)OCCO4)cc2NC(=O)c2c[nH]c(=O)cc2C(F)(F)F)CCN1C (stereo in doubt) [Example 241, N-[5-(2,3-dihydro-[1,4]dioxino[2,3-b]pyridin-7-yl)-4-fluoro-2-[(3R)-3,4-dimethylpiperazin-1-yl]phenyl]-6-oxo-4-(trifluoromethyl)-1H-pyridine-3-carboxamide] |
| 8.13 nM | CC1CN(c2cc(F)c(-c3cnc(N4CCOCC4)nc3)cc2NC(=O)c2cn(C)nc2C(F)(F)F)CCN1C (stereo in doubt) [Example 284, N-[4-fluoro-5-(2-morpholin-4-ylpyrimidin-5-yl)-2-[(3R)-3,4-dimethylpiperazin-1-yl]phenyl]-1-methyl-3-(trifluoromethyl)pyrazole-4-carboxamide] |
| 4.22 nM | CC1CN(c2cc(F)c(-c3cnc(N4CCOCC4)nc3)cc2NC(=O)c2ccc(F)cc2C(F)(F)F)CCN1C (stereo in doubt) [Example 298, 4-fluoro-N-[4-fluoro-5-(2-morpholin-4-ylpyrimidin-5-yl)-2-[(3R)-3,4-dimethylpiperazin-1-yl]phenyl]-2-(trifluoromethyl)benzamide] |
| 0.569 nM | CC1CN(c2cc(F)c(-c3cnc(N4CCOCC4)nc3)cc2NC(=O)c2ccc(F)cc2C(F)(F)F)CCN1C (stereo in doubt) [Example 299, 4-fluoro-N-[4-fluoro-5-(2-morpholin-4-ylpyrimidin-5-yl)-2-[(3R)-3,4-dimethylpiperazin-1-yl]phenyl]-2-(trifluoromethyl)benzamide] |
| 5.26 nM | CC1CN(c2cc(F)c(-c3ccc(N4CCN(C)CC4)nc3)cc2NC(=O)c2cn(C)c(=O)cc2C(F)(F)F)CCN1C (stereo in doubt) [Example 301, N-[4-fluoro-5-[6-(4-methylpiperazin-1-yl)pyridin-3-yl]-2-[(3R)-3,4-dimethylpiperazin-1-yl]phenyl]-1-methyl-6-oxo-4-(trifluoromethyl)pyridine-3-carboxamide] |
| 5.37 nM | CC1CN(c2cc(F)c(-c3ccc(N4CCN(C)CC4)cc3)cc2NC(=O)c2cn(C)c(=O)cc2C(F)(F)F)CCN1C (stereo in doubt) [Example 302, N-[4-fluoro-5-[4-(4-methylpiperazin-1-yl)phenyl]-2-[(3R)-3,4-dimethylpiperazin-1-yl]phenyl]-1-methyl-6-oxo-4-(trifluoromethyl)pyridine-3-carboxamide] |
| 0.989 nM | CC1CN(c2cc(F)c(-c3cnc(N4CCN(C)CC4)nc3)cc2NC(=O)c2ccc(F)cc2C(F)(F)F)CCN1C (stereo in doubt) [Example 316, 4-fluoro-N-[4-fluoro-5-[2-(4-methylpiperazin-1-yl)pyrimidin-5-yl]-2-[(3R)-3,4-dimethylpiperazin-1-yl]phenyl]-2-(trifluoromethyl)benzamide] |
| 1.61 nM | CC1CN(c2cc(F)c(-c3cnc(N4CC(C)(C)OC(C)(C)C4)nc3)cc2NC(=O)c2c[nH]c(=O)cc2C(F)(F)F)CCN1C (stereo in doubt) [Example 319, N-[4-fluoro-2-[(3R)-3,4-dimethylpiperazin-1-yl]-5-[2-(2,2,6,6-tetramethylmorpholin-4-yl)pyrimidin-5-yl]phenyl]-6-oxo-4-(trifluoromethyl)-1H-pyridine-3-carboxamide] |
| 2.01 nM | CC1CN(c2cc(F)c(-c3ccc(N4CCOCC4)nc3)cc2NC(=O)c2c[nH]c(=O)cc2C(F)F)CCN1C (stereo in doubt) [Example 331, 4-(difluoromethyl)-N-[4-fluoro-5-(6-morpholin-4-ylpyridin-3-yl)-2-[(3R)-3,4-dimethylpiperazin-1-yl]phenyl]-6-oxo-1H-pyridine-3-carboxamide] |
| 1.16 nM | C[C@@H]1CN(c2cc(F)c(-c3cnc(N4CCOC[C@H]4C)nc3)cc2NC(=O)c2c[nH]c(=O)cc2C(F)(F)F)CCN1C (stereo in doubt) [Example 337, N-[4-fluoro-2-[(3R)-3,4-dimethylpiperazin-1-yl]-5-[2-[(3R)-3-methylmorpholin-4-yl]pyrimidin-5-yl]phenyl]-6-oxo-4-(trifluoromethyl)-1H-pyridine-3-carboxamide] |
| 2.08 nM | CC1COCCN1c1ncc(-c2cc(NC(=O)c3c[nH]c(=O)cc3C(F)(F)F)c(N3C[C@@H](C)N(C)[C@@H](C)C3)cc2F)cn1 (stereo in doubt) [Example 338, N-[4-fluoro-5-[2-[(3R)-3-methylmorpholin-4-yl]pyrimidin-5-yl]-2-[(3S,5R)-3,4,5-trimethylpiperazin-1-yl]phenyl]-6-oxo-4-(trifluoromethyl)-1H-pyridine-3-carboxamide] |
